In patent publication US10858316B2, “Small molecule inhibitors of the MCL-1 oncoprotein and uses thereof” (University of Maryland, Baltimore, priority 2015, dated 2020):
Values joined by “and” are separate entries in the source; they are usually repeats but may differ in a detail not shown here. Identical values can stand only once. Like-named read-outs stand apart in the source and are kept apart here.

Legend:
Bcl-xL = Bcl-xL (Homo sapiens (Human), UniProt Q07817); assay: Fluorescence polarization competition assay, Bcl-xL; assay type: binding; conditions: for Ki: Ki from IC50 by Nikolovska-Coleska equation, NA = no activity, read-out: Bcl-xL Ki; for Bcl-xL Exp ΔG: ΔG from experimental Ki
Procedure: (§1) Fluorescence polarization experiments were conducted using a BMG PHERAstar FS multimode microplate reader equipped with two PMTs for simultaneous measurements of the perpendicular and parallel fluorescence emission. The assays were performed in black polypropylene 384-well microplate (Costar) with a final volume of 20 microliter. […] Regression analysis was carried out using Origin (OriginLab, Northampton, Mass.) to fit the data to the Hill equation (1) to determine the initial binding affinity (KD) and the IC50 in the FPCA. For the fluorescence polarization competition titrations, an equation derived by Nikolovska-Coleska et al. was used to calculate the Ki from the IC50 data.

Mcl-1 [1] = biological target: Mcl-1 (Homo sapiens (Human), UniProt Q07820); assay: Fluorescence polarization competition assay (FPCA), Mcl-1 / FITC-Bak BH3 peptide; assay type: binding; conditions: for Ki: read-out: Mcl-1 Ki; for Mcl-1 Exp ΔG: ΔG=−RTlnKi from experimental Ki
From the text: (§2) The tagged protein was initially purified from the crude cell lysate by immobilized metal affinity chromatography (IMAC) chromatography (GE Healthcare Life Sciences), and after dialysis to remove the imidazole the affinity tag was cleaved using PreScission Protease (GE Healthcare Life Sciences). A Sephacryl S-200 size exclusion column was used as a final purification step before the protein was concentrated with a 10,000 MWCO centifugal filter concentrator (Millipore).
as §1
(§3) The target molecules were assayed for their abilities to disrupt the Mcl-1-Bak-BH3 PPI in a fluorescence polarization competition (FPC) assay with Mcl-1 and FITC-labeled Bak-BH3 peptide. Further details on the FPC assay can be found in the Supporting Information.

Mcl-1 [2] = assay: as above; assay type: binding, human; conditions: for Selectivity, Ki (Bcl-xL) divided by Ki (Mcl-1): Mcl-1 over Bcl-xL; for Exp. ΔG diff.: between Mcl-1 and Bcl-xL, positive favors Mcl-1
From the text: as §2, §1, §3

[3] = FPCA with FITC-Bak, Ki from IC50 by Nikolovska-Coleska equation

Sequence of Bcl-xL (Q07817 whole entry): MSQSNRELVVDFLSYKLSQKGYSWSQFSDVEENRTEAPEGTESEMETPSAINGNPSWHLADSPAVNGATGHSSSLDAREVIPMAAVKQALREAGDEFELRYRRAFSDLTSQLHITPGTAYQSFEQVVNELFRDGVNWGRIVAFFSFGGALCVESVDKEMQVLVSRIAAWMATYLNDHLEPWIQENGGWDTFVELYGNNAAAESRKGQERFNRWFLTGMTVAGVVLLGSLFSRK
Sequence of Mcl-1 (Homo sapiens (Human), UniProt Q07820) (Q07820 172-327): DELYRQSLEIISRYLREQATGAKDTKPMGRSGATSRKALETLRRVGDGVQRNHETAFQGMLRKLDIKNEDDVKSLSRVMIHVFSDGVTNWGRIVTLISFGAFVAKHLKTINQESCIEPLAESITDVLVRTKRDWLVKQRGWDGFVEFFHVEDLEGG

| SMILES | Ki (Bcl-xL) [nM] | Ki (Mcl-1 [1]; [3]) | Selectivity, Ki (Bcl-xL) divided by Ki (Mcl-1) (Mcl-1 [2]) | Bcl-xL Exp ΔG (Bcl-xL) [kcal/mol] | Mcl-1 Exp ΔG (Mcl-1 [1]) [kcal/mol] | Exp. ΔG diff. (Mcl-1 [2]) [kcal/mol] | IC50 (Mcl-1 [1]; FPCA, read-out: IC50 disruption of Mcl-1-Bak-BH3 PPI) [nM] | Ki (Mcl-1 [1]; FPCA) [nM] |
| --- | --- | --- | --- | --- | --- | --- | --- | --- |
| O=C(O)c1cc(S(=O)(=O)Nc2ccc3ccccc3c2)c2ccccc2c1O [Compound 3q, 1-Hydroxy-4-(N-(naphthalen-2-yl)sulfamoyl)-2-naphthoic Acid] | 68500 ± 36300 | 4580 ± 1560 nM | 15 | – | – | – | – | – |
| Cc1cc(Oc2ccc(NS(=O)(=O)c3cc(C(=O)O)c(O)c4ccccc34)cc2)cc(C)c1Cl [3bi; JY-5-371] | – | – | – | -8.61 | -9.45 | 0.84 | – | – |
| O=C(O)c1cc(S(=O)(=O)Nc2ccc(Br)cc2)c2ccccc2c1O [Compound 3a, 4-(N-(4-bromophenyl)sulfamoyl)-1-hydroxy-2-naphthoic Acid] | 51400 ± 31300 | 2760 nM | 19 | – | – | – | 10900 | – |
| O=C(O)c1cc(S(=O)(=O)Nc2ccc(Oc3ccc(Cl)cc3Cl)cc2)c2ccccc2c1O [3bg; SF-5-302] | – | – | – | -9.16 | -9.68 | 0.52 | – | – |
| Cc1cc(Oc2ccc(NS(=O)(=O)c3cc(C(=O)O)c(O)c4ccccc34)cc2)cc(C)c1Cl [Compound 3bi, 4-(N-(4-(4-Chloro-3,5-dimethylphenoxy)phenyl)sulfamoyl)-1-hydroxy-2-naphthoic Acid] | 480 ± 50 | 117 ± 60 nM | 4.1 | – | – | – | – | – |
| O=C(O)c1cc(S(=O)(=O)Nc2ccc(Oc3cccc4ccccc34)cc2)c2ccccc2c1O [3bd; SF-5-300] | – | – | – | -9.08 | -9.66 | 0.58 | – | – |
| O=C(O)c1cc(S(=O)(=O)Nc2ccc(Br)cc2)c2ccccc2c1O [1; 3a] | – | – | – | -5.85 | -7.58 | 1.73 | – | – |
| O=C(O)c1cc(S(=O)(=O)Nc2ccc(Oc3cccc(Br)c3)cc2)c2ccccc2c1O [3be; SF-5-303] | – | – | – | -8.89 | -9.47 | 0.58 | – | – |
| COc1ccc(NS(=O)(=O)c2cc(C(=O)O)c(O)c3ccccc23)cc1 [Compound 3z, 1-Hydroxy-4-(N-(4-methoxyphenyl)sulfamoyl)-2-naphthoic Acid] | 71900 ± 21000 | 11900 ± 2500 nM | 6 | – | – | – | – | – |
| Cc1cc(Oc2ccc(N(C3CCCC3)S(=O)(=O)c3cc(C(=O)O)c(O)c4ccccc34)cc2)cc(C)c1Cl [Compound 3bk, 4-(N-(4-(4-Chloro-3,5-dimethylphenoxy)phenyl)-N-cyclopentylsulfamoyl)-1-hydroxy-2-naphthoic Acid] | 290 ± 50 | – | 8.8 | – | – | – | – | 33 |
| O=C(O)c1cc(S(=O)(=O)Nc2ccccc2C(F)(F)F)c2ccccc2c1O [3u; TA-1-017] | – | – | – | -6.43 | -7.35 | 0.92 | – | – |
| O=C(O)c1cc(S(=O)(=O)Nc2ccc(Br)cc2Br)c2ccccc2c1O [Compound 3o, 4-(N-(2,4-Dibromophenyl)sulfamoyl)-1-hydroxy-2-naphthoic Acid] | 2310 ± 1350 | – | 5.5 | – | – | – | – | 420 |
| O=C(O)c1cc(S(=O)(=O)Nc2ccc(Oc3cccc(Br)c3)cc2)c2ccccc2c1O [Compound 3be, 4-(N-(4-(3-Bromophenoxy)phenyl)sulfamoyl)-1-hydroxy-2-naphthoic Acid] | 300 ± 40 | 114 nM | 3.8 | – | – | – | – | – |
| O=C(O)c1cc(S(=O)(=O)NCC2CCCCC2)c2ccccc2c1O [3g; MEL-3-006] | – | – | – | -5.60 | -7.00 | 1.40 | – | – |
| O=C(O)c1cc(S(=O)(=O)Nc2ccc3ccccc3c2)c2ccccc2c1O [3q; EW-2-057] | – | – | – | -5.68 | -7.28 | 1.60 | – | – |
| O=C(O)c1cc(S(=O)(=O)Nc2ccc([N+](=O)[O-])cc2)c2ccccc2c1O [3ac; MEL-3-005] | – | – | – | -6.31 | -7.29 | 0.98 | – | – |
| CC(C)CN(c1ccc(OC(C)C)cc1)S(=O)(=O)c1cc(C(=O)O)c(O)c2ccccc12 [3ba; MEL-2-116] | – | – | – | -7.11 | -8.61 | – | – | – |
| Cc1cc(C)cc(Oc2ccc(NS(=O)(=O)c3cc(C(=O)O)c(O)c4ccccc34)cc2)c1 [3bf; SF-5-306] | – | – | – | -8.74 | -8.93 | 0.19 | – | – |
| CS(=O)(=O)NC(=O)c1ccc(N(Cc2ccccc2)S(=O)(=O)c2ccc(Oc3ccccc3)cc2)cc1O [LC-5-112 27] | 7220 ± 1070 | 2940 ± 350 nM | – | – | – | – | – | – |
| O=C(O)c1cc(S(=O)(=O)Nc2ccccc2C(F)(F)F)c2ccccc2c1O [Compound 3u, 1-Hydroxy-4-(N-(2-(trifluoromethyl)phenyl)sulfamoyl)-2-naphthoic Acid] | 19300 ± 9000 | 4050 ± 2110 nM | 4.8 | – | – | – | – | – |
| Cc1cc(Oc2ccc(S(=O)(=O)N(Cc3ccccc3)c3ccc(O)c(C(=O)O)c3)cc2)cc(C)c1Cl [LC-5-129 29] | 1820 ± 234 | 1400 ± 470 nM | – | – | – | – | – | – |
| CC(C)CN(c1ccc(O)c(C(=O)O)c1)S(=O)(=O)c1ccc(-c2ccccc2)cc1 [JY-5-300 18bc] | 13900 ± 3360 | 8700 ± 2050 nM | – | – | – | – | – | – |
| Cc1ccc(Oc2ccc(NS(=O)(=O)c3cc(C(=O)O)c(O)c4ccccc34)cc2)cc1 [Compound 3bc, 1-Hydroxy-4-(N-(4-(p-tolyloxy)phenyl)sulfamoyl)-2-naphthoic Acid] | 840 ± 50 | 335 nM | 2.5 | – | – | – | – | – |
| Cc1cc(C)cc(Oc2ccc(NS(=O)(=O)c3cc(C(=O)O)c(O)c4ccccc34)cc2)c1 [Compound 3bf, 4-(N-(4-(3,5-Dimethylphenoxy)phenyl)sulfamoyl)-1-hydroxy-2-naphthoic Acid] | 390 ± 100 | 284 nM | 1.4 | – | – | – | – | – |
| O=C(O)c1cc(S(=O)(=O)NCC2CCCCC2)c2ccccc2c1O [Compound 3g, 4-(N-(Cyclohexylmethyl)sulfamoyl)-1-hydroxy-2-naphthoic Acid] | 77600 ± 14300 | 7310 ± 1420 nM | 11 | – | – | – | – | – |
| O=C(O)c1cc(S(=O)(=O)Nc2cccc3ccccc23)c2ccccc2c1O [Compound 3p, 1-Hydroxy-4-(N-(naphthalen-1-yl)sulfamoyl)-2-naphthoic Acid] | 110000 ± 45000 | 11200 ± 2000 nM | 10 | – | – | – | – | – |
| O=C(NS(=O)(=O)c1ccccc1)c1ccc(N(Cc2ccccc2)S(=O)(=O)c2ccc(Oc3ccccc3)cc2)cc1O [LC-5-096 28] | 2340 ± 221 | 1900 nM and 1940 nM | – | – | – | – | – | – |
| O=C(O)c1cc(S(=O)(=O)Nc2cccc3ccccc23)c2ccccc2c1O [3p; EW-2-056] | – | – | – | -5.40 | -6.75 | 1.35 | – | – |
| O=C(NS(=O)(=O)c1ccc(NCC2CCOCC2)c([N+](=O)[O-])c1)c1ccc(N(Cc2ccccc2)S(=O)(=O)c2ccc(Oc3ccccc3)cc2)cc1O [LC-5-107 30] | 1050 ± 146 | 1230 ± 152 nM | – | – | – | – | – | – |
| Cc1cc(Oc2ccc(N(Cc3ccccc3)S(=O)(=O)c3cc(C(=O)O)c(O)c4ccccc34)cc2)cc(C)c1Cl [3bl; JY-5-380] | – | – | – | -8.82 | -10.24 | – | – | – |
